Tests used:
Conditions in all cases: Compound concentration 1000.0 nM
[1] = biological target: AP2-associated protein kinase 1 (Homo sapiens) (UniProt Q2M2I8)
[2] = biological target: Tyrosine-protein kinase ABL1 (Homo sapiens) (UniProt P00519)
[3] = biological target: Activin receptor type-1B (Homo sapiens) (UniProt P36896)
[4] = biological target: RAC-gamma serine/threonine-protein kinase (Homo sapiens) (UniProt Q9Y243)
[5] = biological target: Tyrosine-protein kinase Blk (Homo sapiens) (UniProt P51451)
Sequence of Tyrosine-protein kinase Blk (Homo sapiens) (P51451 2-505 limits assumed): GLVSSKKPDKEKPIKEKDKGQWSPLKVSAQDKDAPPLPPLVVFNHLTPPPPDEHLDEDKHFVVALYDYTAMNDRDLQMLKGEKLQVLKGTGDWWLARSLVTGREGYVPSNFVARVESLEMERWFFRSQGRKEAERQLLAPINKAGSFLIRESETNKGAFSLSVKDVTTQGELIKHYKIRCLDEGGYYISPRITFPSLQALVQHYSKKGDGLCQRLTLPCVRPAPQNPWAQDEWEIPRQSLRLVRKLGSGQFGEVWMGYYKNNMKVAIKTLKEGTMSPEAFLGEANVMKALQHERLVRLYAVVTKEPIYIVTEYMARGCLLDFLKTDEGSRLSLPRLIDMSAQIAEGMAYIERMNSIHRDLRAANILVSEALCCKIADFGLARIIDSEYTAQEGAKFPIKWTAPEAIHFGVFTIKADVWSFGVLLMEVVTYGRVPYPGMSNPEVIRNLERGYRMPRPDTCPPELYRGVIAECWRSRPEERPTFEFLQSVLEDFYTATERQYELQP

[6] = biological target: Serine/threonine-protein kinase BRSK2 (Homo sapiens) (UniProt Q8IWQ3)
[7] = biological target: Tyrosine-protein kinase BTK (Homo sapiens) (UniProt Q06187)
[8] = biological target: Cyclin-dependent kinase 4 (Homo sapiens) (UniProt P11802)
[9] = biological target: Serine/threonine-protein kinase Chk1 (Homo sapiens) (UniProt O14757)
Sequence of Serine/threonine-protein kinase Chk1 (Homo sapiens) (O14757 whole entry, canonical isoform): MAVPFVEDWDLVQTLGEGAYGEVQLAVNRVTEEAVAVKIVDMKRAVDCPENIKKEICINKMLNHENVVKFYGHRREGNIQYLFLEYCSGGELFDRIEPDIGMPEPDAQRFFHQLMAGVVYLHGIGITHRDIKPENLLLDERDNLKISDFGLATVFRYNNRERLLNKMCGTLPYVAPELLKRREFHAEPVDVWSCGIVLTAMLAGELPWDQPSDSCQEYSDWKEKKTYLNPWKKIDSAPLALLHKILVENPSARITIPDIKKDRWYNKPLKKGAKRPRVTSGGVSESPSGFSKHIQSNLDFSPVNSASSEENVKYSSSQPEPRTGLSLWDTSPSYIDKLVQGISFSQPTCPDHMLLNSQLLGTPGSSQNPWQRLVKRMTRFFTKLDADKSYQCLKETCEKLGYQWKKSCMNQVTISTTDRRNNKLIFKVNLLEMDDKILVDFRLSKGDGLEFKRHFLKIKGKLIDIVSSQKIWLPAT

[10] = biological target: Casein kinase I isoform alpha-like (Homo sapiens) (UniProt Q8N752)
[11] = biological target: Casein kinase I isoform delta (Homo sapiens) (UniProt P48730)
[12] = biological target: Casein kinase II subunit alpha' (Homo sapiens) (UniProt P19784)
[13] = biological target: Serine/threonine-protein kinase DCLK1 (Homo sapiens) (UniProt O15075)
[14] = biological target: Epithelial discoidin domain-containing receptor 1 (Homo sapiens) (UniProt Q08345)
[15] = system: Epidermal growth factor receptor (Homo sapiens), P00533 [UNDEFINED MUTATION]
[16] = biological target: Receptor tyrosine-protein kinase erbB-2 (Homo sapiens) (UniProt P04626)
Sequence of Receptor tyrosine-protein kinase erbB-2 (Homo sapiens) (P04626 whole entry): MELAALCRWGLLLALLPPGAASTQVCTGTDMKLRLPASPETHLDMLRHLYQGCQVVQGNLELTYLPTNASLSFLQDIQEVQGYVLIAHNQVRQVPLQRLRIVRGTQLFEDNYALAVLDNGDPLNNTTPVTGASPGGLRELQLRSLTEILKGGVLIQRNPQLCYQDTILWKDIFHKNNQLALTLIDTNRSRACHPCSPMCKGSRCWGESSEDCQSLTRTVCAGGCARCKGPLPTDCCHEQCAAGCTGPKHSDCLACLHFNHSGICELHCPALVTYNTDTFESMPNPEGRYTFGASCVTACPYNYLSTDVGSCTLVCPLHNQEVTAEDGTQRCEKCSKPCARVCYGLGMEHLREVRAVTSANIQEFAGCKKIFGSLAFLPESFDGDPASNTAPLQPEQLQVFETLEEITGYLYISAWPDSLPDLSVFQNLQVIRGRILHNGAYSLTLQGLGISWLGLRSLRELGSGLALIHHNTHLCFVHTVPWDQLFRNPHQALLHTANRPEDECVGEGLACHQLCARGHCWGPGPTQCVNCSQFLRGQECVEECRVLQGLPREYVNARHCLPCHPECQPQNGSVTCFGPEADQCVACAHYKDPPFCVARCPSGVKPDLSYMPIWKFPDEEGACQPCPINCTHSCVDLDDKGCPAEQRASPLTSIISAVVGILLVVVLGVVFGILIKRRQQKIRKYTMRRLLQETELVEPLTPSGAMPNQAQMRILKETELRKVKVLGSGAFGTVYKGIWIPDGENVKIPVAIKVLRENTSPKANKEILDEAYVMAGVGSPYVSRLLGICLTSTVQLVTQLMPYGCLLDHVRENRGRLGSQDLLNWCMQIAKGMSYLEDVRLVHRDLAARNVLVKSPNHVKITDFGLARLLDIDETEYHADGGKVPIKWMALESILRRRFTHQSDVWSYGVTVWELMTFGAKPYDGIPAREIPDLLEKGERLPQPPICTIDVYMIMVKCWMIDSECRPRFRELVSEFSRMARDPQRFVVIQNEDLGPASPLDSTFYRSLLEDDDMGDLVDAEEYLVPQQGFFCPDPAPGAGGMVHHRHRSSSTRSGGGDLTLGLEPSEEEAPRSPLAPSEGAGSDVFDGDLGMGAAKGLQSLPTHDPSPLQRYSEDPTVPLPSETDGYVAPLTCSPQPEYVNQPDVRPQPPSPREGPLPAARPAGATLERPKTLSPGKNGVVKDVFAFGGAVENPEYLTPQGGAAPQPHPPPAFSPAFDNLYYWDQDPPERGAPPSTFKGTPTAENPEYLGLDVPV

[17] = biological target: Tyrosine-protein kinase HCK (Homo sapiens) (UniProt P08631)
[18] = biological target: Serine/threonine-protein kinase ICK (Homo sapiens) (UniProt Q9UPZ9)
[19] = biological target: Insulin-like growth factor 1 receptor (Homo sapiens) (UniProt P08069)
[20] = biological target: Serine/threonine-protein kinase LATS2 (Homo sapiens) (UniProt Q9NRM7)
[21] = biological target: LIM domain kinase 2 (Homo sapiens) (UniProt P53671)
[22] = biological target: Mitogen-activated protein kinase kinase kinase 13 (Homo sapiens) (UniProt O43283)
[23] = biological target: Mitogen-activated protein kinase kinase kinase 1 (Homo sapiens) (UniProt Q13233)
[24] = biological target: Dual specificity mitogen-activated protein kinase kinase 1 (Homo sapiens) (UniProt Q02750)
[25] = biological target: Dual specificity mitogen-activated protein kinase kinase 2 (Homo sapiens) (UniProt P36507)
Sequence of Dual specificity mitogen-activated protein kinase kinase 2 (Homo sapiens) (P36507 whole entry): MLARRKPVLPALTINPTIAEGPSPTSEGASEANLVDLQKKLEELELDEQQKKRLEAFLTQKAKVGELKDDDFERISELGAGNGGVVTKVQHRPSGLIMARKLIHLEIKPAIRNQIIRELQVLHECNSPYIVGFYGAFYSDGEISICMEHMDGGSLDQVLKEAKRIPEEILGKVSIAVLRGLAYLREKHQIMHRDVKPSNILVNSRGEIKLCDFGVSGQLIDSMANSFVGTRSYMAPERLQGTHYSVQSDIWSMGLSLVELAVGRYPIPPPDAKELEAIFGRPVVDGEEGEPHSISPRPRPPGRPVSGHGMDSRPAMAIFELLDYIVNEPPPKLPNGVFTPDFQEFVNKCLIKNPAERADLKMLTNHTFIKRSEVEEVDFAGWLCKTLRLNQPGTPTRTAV

[26] = biological target: Dual specificity mitogen-activated protein kinase kinase 4 (Homo sapiens) (UniProt P45985)
[27] = biological target: Muscle, skeletal receptor tyrosine-protein kinase (Homo sapiens) (UniProt O15146)
[28] = biological target: Serine/threonine-protein kinase Nek3 (Homo sapiens) (UniProt P51956)
[29] = biological target: Serine/threonine-protein kinase NLK (Homo sapiens) (UniProt Q9UBE8)
[30] = biological target: Serine/threonine-protein kinase PAK 3 (Homo sapiens) (UniProt O75914)
[31] = biological target: Serine/threonine-protein kinase RIO3 (Homo sapiens) (UniProt O14730)
[32] = biological target: Receptor-interacting serine/threonine-protein kinase 2 (Homo sapiens) (UniProt O43353)
[33] = biological target: Ribosomal protein S6 kinase alpha-5 (Homo sapiens) (UniProt O75582)
Sequence of Ribosomal protein S6 kinase alpha-5 (Homo sapiens) (O75582 whole entry, looked up): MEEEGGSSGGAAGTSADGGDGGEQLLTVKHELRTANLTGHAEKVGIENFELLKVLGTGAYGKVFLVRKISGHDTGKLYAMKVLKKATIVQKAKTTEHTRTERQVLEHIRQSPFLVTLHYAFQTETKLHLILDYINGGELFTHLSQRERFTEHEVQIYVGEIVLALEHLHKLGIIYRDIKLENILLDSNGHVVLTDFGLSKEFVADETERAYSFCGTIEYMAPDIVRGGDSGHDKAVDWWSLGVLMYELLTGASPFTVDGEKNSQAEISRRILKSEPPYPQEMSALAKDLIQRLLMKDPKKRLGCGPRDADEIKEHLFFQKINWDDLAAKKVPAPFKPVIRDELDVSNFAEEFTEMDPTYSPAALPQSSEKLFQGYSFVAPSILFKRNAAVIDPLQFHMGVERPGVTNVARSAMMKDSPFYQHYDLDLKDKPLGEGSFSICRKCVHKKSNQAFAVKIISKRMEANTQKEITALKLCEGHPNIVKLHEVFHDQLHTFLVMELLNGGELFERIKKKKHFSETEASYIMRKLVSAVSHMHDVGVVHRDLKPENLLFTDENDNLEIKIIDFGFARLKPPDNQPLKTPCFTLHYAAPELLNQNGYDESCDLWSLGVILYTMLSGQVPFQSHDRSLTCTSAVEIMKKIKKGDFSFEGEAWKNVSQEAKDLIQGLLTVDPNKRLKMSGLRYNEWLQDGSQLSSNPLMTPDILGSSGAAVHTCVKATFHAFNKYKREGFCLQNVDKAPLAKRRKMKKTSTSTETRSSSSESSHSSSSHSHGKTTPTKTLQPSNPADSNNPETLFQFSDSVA

[34] = biological target: Ribosomal protein S6 kinase alpha-5 (Homo sapiens) (UniProt O75582); remark: listed apart in the source
[35] = biological target: Ribosomal protein S6 kinase alpha-1 (Homo sapiens) (UniProt Q15418)
[36] = biological target: Ribosomal protein S6 kinase beta-1 (Homo sapiens) (UniProt P23443)
[37] = biological target: Proto-oncogene tyrosine-protein kinase Src (Homo sapiens) (UniProt P12931)
[38] = biological target: Serine/threonine-protein kinase 35 (Homo sapiens) (UniProt Q8TDR2)
[39] = biological target: Serine/threonine-protein kinase TAO1 (Homo sapiens) (UniProt Q7L7X3)
[40] = biological target: Serine/threonine-protein kinase TBK1 (Homo sapiens) (UniProt Q9UHD2)
[41] = biological target: Tyrosine-protein kinase receptor Tie-1 (Homo sapiens) (UniProt P35590)
[42] = biological target: Angiopoietin-1 receptor (Homo sapiens) (UniProt Q02763)
[43] = biological target: NT-3 growth factor receptor (Homo sapiens) (UniProt Q16288)
Sequence of NT-3 growth factor receptor (Homo sapiens) (Q16288 32-839 limits assumed): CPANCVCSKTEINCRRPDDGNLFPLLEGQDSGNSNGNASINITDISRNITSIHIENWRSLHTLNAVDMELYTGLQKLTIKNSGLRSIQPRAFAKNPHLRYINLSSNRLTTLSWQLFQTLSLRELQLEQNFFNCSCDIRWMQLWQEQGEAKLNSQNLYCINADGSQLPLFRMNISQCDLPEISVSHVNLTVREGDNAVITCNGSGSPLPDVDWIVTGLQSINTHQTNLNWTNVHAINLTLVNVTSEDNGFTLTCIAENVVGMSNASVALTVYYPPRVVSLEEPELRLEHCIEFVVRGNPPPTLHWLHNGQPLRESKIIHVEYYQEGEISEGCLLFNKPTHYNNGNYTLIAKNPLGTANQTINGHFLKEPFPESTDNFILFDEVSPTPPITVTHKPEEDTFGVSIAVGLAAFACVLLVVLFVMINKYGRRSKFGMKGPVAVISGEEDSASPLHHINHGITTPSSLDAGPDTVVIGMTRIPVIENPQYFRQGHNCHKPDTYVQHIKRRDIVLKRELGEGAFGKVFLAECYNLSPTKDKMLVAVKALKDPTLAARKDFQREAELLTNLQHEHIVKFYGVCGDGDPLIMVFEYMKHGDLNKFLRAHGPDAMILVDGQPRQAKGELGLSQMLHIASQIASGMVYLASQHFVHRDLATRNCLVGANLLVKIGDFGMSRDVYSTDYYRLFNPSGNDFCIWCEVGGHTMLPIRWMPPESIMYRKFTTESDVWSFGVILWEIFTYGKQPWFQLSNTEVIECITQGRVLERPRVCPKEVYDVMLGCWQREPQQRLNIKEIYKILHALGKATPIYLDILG

[44] = biological target: Transient receptor potential cation channel subfamily M member 6 (Homo sapiens) (UniProt Q9BX84)
[45] = biological target: Serine/threonine-protein kinase ULK3 (Homo sapiens) (UniProt Q6PHR2)

Measured: residual activity

Sequence of Activin receptor type-1B (Homo sapiens) (P36896 whole entry): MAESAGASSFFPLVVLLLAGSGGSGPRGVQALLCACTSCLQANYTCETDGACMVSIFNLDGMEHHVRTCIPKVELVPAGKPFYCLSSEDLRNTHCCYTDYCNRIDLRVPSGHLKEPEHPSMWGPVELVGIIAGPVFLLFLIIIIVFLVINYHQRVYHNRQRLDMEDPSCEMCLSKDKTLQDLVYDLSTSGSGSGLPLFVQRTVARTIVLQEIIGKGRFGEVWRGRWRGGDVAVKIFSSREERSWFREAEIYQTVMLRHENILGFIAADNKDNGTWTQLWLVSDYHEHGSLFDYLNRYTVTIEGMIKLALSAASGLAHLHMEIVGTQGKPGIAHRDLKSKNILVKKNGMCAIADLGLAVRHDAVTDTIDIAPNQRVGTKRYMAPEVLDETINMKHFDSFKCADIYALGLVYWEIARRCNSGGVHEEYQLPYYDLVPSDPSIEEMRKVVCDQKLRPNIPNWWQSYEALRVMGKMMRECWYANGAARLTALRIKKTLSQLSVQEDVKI

Cn1cncc1[C@@](O)(COc1ccc(C#N)cc1-c1ccc(OC(F)(F)F)cc1)c1ccc(C#N)cc1 [A-108]
inactive: [1] 94% | [2] 96% | [3] 100% | [4] 100% | [5] 71% | [6] 100% | [7] 82% | [8] 92% | [9] 100% | [10] 100% | [11] 94% | [12] 100% | [13] 87% | [14] 100% | [15] 100% | [16] 94% | [17] 100% | [18] 75% | [19] 100% | [20] 100% | [21] 82% | [22] 72% | [23] 100% | [24] 89% | [25] 74% | [26] 100% | [27] 100% | [28] 87% | [29] 100% | [30] 91% | [31] 90% | [32] 100% | [33] 88% | [34] 81% | [35] 100% | [36] 94% | [37] 100% | [38] 100% | [39] 100% | [40] 100% | [41] 100% | [42] 92% | [43] 99% | [44] 100% | [45] 78%

Cn1cncc1[C@](O)(COc1ccc(C#N)cc1-c1ccc(OC(F)(F)F)cc1)c1ccc(C#N)cc1 [ABT-100]
inactive: [1] 87% | [2] 100% | [3] 87% | [4] 100% | [5] 90% | [7] 92% | [8] 100% | [9] 97% | [10] 74% | [11] 100% | [12] 100% | [13] 94% | [14] 97% | [15] 76% | [16] 100% | [17] 100% | [18] 100% | [19] 92% | [20] 100% | [21] 72% | [22] 100% | [23] 90% | [24] 100% | [25] 94% | [26] 89% | [27] 93% | [28] 96% | [29] 89% | [30] 96% | [31] 95% | [32] 100% | [33] 94% | [34] 76% | [35] 100% | [36] 96% | [37] 81% | [38] 100% | [39] 87% | [40] 100% | [41] 85% | [42] 92% | [43] 80% | [44] 100% | [45] 88%
active: [6] 48%

— ChEMBL document CHEMBL4507257, “Data for DCP probe ABT-100” (2021)
